Legend:
[1] = target: T1, KDR tyrosine kinase (Homo sapiens, UniProt P35968); assay: In vitro enzyme assay (ELISA), KDR; assay type: biochemical; conditions: Test (a); ATP 8 μM; read-out: IC50 versus KDR tyrosine kinase
T1 construct: encoding most of the cytoplasmic domain, commencing with methionine 806 and including the termination codon; made in house; host or cells: Sf9 insect cells (baculovirus)
Method: (§1) (a) In Vitro Enzyme Assays
(§2) The ability of test compounds to inhibit the phosphorylation of a tyrosine containing polypeptide substrate by the tyrosine kinase enzymes PDGFRα, PDGFRβ and KDR was assessed using conventional ELISA assays.
(§3) DNA encoding the PDGFRα, PDGFRβ or KDR receptor cytoplasmic domains may be obtained by total gene synthesis (International Biotechnology Lab., 1987, 5(3), 19-25) or by cloning. The DNA fragments may be expressed in a suitable expression system to obtain polypeptide with tyrosine kinase activity. For example, PDGFRα, PDGFRβ and KDR receptor cytoplasmic domains, obtained by expression of recombinant protein in insect cells, can be shown to display intrinsic tyrosine kinase activity. In the case of the VEGF receptor KDR (Genbank Accession No. L04947), a DNA fragment encoding most of the cytoplasmic domain, commencing with methionine 806 and including the termination codon may be cloned into a baculovirus transplacement vector [for example pAcYM1 (see The Baculovirus Expression System: A Laboratory Guide, L. A. King and R. D. Possee, Chapman and Hall, 1992) or pAc360 or pBlueBacHis (available from Invitrogen Corporation)]. This recombinant construct may be co-transfected into insect cells [for example Spodoptera frugiperda 21 (Sf21) or Spodoptera frugiperda 9 (Sf9)] with viral DNA (for example Pharmingen BaculoGold) to prepare recombinant baculovirus. Details of the methods for the assembly of recombinant DNA molecules and the preparation and use of recombinant baculovirus can be found in standard texts, for example Sambrook et al., 1989, Molecular cloning—A Laboratory Manual, 2nd edition, Cold Spring Harbour Laboratory Press and O'Reilly et al., 1992, Baculovirus Expression Vectors—A Laboratory Manual, W.H. Freeman and Co, New York).
For expression, Sf9 cells were infected with plaque-pure KDR recombinant virus and harvested 48 hours later. […]

[2] = target: T2, phospho-Tyr751 PDGFRβ (Homo sapiens, UniProt P09619); assay: In vitro phospho-Tyr751 PDGFRβ ELISA assay; assay type: cell-based; conditions: Test (b); MG63 osteosarcoma cells stimulated with PDGFBB; read-out: IC50 versus phospho-Tyr751 PDGFRβ
T2 construct: phosphorylation of PDGFR expressed on MG63 osteosarcoma cells; endogenous in cells; host or cells: MG63 osteosarcoma cells
T2 sequence (P09619 33-1106): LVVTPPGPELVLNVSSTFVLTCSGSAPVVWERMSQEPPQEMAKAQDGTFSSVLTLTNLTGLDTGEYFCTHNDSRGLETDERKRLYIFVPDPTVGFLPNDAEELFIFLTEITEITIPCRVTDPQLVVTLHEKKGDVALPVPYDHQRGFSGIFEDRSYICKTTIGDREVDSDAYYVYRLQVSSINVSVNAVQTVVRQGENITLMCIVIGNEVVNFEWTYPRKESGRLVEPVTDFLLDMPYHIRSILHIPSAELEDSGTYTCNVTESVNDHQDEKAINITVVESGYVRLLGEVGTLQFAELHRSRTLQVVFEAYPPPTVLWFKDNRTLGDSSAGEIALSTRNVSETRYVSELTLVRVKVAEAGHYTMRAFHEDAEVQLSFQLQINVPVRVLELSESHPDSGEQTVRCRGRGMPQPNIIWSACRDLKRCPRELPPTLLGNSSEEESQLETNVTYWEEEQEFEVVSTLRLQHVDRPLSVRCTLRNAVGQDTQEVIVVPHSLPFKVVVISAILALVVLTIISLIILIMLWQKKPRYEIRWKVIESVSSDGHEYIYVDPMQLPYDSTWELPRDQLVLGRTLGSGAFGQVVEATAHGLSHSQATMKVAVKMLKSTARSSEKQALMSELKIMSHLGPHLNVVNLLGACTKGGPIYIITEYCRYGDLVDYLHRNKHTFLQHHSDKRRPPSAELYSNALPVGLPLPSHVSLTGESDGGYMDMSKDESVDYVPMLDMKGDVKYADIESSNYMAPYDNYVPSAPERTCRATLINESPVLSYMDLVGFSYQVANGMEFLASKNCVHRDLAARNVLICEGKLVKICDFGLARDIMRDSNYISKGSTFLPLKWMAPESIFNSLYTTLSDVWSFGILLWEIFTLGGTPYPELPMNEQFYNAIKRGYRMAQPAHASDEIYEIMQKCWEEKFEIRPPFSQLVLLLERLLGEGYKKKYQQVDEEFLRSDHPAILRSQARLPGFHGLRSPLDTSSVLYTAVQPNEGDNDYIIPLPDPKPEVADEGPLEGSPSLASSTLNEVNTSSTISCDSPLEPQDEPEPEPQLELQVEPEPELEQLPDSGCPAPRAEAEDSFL
Method: (b) In Vitro Phospho-Tyr751 PDGFRβ ELISA Assay
This assay uses a conventional EISA method to determine the ability of test compounds to inhibit phosphorylation of tyrosine in PDGFRβ.
An MG63 osteosarcoma cell line [American Type Culture Collection (ATCC) CCL 1427] was routinely maintained at 37° C. with 7.5% CO2 in Dulbecco's modified Eagle's growth medium (DMEM; Sigma-Aldrich; Catalogue No. D6546) containing 10% foetal calf serum (FCS; Sigma-Aldrich; Catalogue No. F7524) and 2 mM L-glutamine (Invitrogen Ltd., Paisley, UK; Catalogue No. 25030-024).
For the assay, the cells were detached from the culture flask using a trypsin/ethylenediaminetetraacetic acid (EDTA) mixture (Invitrogen Ltd.; Catalogue No. 15400-054) and resuspended in test media comprising DMEM without phenol red (Sigma-Aldrich; Catalogue No. D5921) containing 1% charcoal-stripped foetal calf serum (FCS) (Sigma-Aldrich; Catalogue No. F7524, stripped by incubation with dextran-coated activated charcoal at 55° C. for 30 minutes with continuous stirring followed by removal of the charcoal by centrifugation and filter sterilisation) and 2 mM L-glutamine (Invitrogen Ltd., Catalogue No. 25030-024) to give 6×10^4 cells per ml. Aliquots (100 μl) were seeded into each of the wells of columns 2-12 (excluding column 1) and rows B-G (excluding rows A and H) of a clear 96 well tissue culture plate (Corning Life Sciences, Koolhovenlaan, The Netherlands; Catalogue No. 3595) to give a density of about 6000 cells per well. Aliquots (100 μl) of culture media were placed in the outer wells to minimise edge effects. The cells were incubated overnight at 37° C. with 7.5% CO2 to allow the cells to adhere to the wells.
Test compounds were prepared as 10 mM stock solutions in DMSO and serially diluted as required with test media to give a range of concentrations. Aliquots (50 μl) of each compound concentration were added to the cells in each well. Control cells received a dilution of DMSO only. The cells were incubated for 90 minutes at 37° C. with 7.5% CO2.
The resultant cells were stimulated with PDGFBB using the following procedure. A lyophilised powder of PDGFBB, (Sigma-Aldrich; Catalogue No. P4306) was mixed with 4 mM aqueous hydrochloric acid containing 0.1% filter-sterilised BSA to provide a stock solution of 10 μg/ml of PDGFBB. A dilution of this stock solution into test medium provided a 200 ng/ml PDGFBB solution. Aliquots thereof (50 μl) were added to compound treated cells and to one set of control wells to give the “maximum” control. The “minimum” controls received media only. The cells were incubated at 37° C. with 7.5% CO2 for 5 minutes. […]

[3] = target: T3, PDGFRα tyrosine kinase (Homo sapiens, UniProt P16234); assay: In vitro enzyme assay (ELISA), PDGFRα; assay type: biochemical; conditions: Test (a); ATP 14 μM; read-out: IC50 versus PDGFRα tyrosine kinase
T3 construct: PDGFRα, PDGFRβ and KDR receptor cytoplasmic domains, obtained by expression of recombinant protein in insect cells; purchased Upstate Biotechnology Inc. 14-467; host or cells: Sf9 insect cells
T3 sequence (P16234 550-1089 limits assumed): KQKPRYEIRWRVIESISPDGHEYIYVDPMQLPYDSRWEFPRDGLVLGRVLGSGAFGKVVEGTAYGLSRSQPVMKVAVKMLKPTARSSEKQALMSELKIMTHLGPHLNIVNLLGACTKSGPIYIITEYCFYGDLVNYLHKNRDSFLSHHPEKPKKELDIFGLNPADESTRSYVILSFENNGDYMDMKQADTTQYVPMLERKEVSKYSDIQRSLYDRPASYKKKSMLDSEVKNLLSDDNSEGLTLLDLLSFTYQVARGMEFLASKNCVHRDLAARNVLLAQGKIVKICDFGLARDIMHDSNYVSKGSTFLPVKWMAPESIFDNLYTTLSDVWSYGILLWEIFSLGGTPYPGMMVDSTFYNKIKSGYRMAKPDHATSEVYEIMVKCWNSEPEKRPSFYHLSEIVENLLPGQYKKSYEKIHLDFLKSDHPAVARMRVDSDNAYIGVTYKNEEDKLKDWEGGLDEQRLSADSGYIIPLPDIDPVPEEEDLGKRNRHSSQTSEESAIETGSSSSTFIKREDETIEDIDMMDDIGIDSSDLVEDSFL
Method: as §1, §2
as §3, with “York). […]” for “York).”

[4] = target: T4, PDGFRβ tyrosine kinase (Homo sapiens, UniProt P09619); assay: In vitro enzyme assay (ELISA), PDGFRβ; assay type: biochemical; conditions: Test (a); ATP 2.8 μM; read-out: IC50 versus PDGFRβ tyrosine kinase
T4 construct: PDGFRα, PDGFRβ and KDR receptor cytoplasmic domains, obtained by expression of recombinant protein in insect cells; purchased Upstate Biotechnology Inc. 14-463; host or cells: Sf9 insect cells
T4 sequence (P09619 554-1106 limits assumed): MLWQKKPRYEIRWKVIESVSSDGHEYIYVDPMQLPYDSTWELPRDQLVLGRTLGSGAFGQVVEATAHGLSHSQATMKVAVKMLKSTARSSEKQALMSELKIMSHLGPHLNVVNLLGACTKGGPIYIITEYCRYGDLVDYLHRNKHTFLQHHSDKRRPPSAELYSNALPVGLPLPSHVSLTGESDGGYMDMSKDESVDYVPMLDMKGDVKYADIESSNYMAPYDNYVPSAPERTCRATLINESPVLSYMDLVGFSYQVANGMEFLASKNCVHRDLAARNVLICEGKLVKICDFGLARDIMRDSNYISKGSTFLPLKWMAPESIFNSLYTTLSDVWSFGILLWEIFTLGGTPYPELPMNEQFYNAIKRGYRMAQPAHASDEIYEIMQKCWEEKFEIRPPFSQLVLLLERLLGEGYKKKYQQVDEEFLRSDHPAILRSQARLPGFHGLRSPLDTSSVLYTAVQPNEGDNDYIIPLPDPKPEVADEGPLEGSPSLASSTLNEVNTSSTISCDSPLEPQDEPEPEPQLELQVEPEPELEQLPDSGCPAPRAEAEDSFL
Method: as §1, §2
as §3, with “York). […]” for “York).”

[5] = tested on: PDGF receptor kinase; conditions: Nature Reviews, 2002, 1, 493-502; Cancer Research, 1996, 56, 100-104; cited from earlier work
[6] = tested on: human glioblastoma lines U343 and U87; conditions: injection into the brains of nude mice of U343 and U87; Cancer Research, 2000, 60, 5143-5150; cited from earlier work
[7] = tested on: dermatofibrosarcoma protruberans cell cultures; conditions: Cancer Research, 2001, 61, 5778-5783; cited from earlier work

T1 sequence (P35968 786-1356 limits assumed): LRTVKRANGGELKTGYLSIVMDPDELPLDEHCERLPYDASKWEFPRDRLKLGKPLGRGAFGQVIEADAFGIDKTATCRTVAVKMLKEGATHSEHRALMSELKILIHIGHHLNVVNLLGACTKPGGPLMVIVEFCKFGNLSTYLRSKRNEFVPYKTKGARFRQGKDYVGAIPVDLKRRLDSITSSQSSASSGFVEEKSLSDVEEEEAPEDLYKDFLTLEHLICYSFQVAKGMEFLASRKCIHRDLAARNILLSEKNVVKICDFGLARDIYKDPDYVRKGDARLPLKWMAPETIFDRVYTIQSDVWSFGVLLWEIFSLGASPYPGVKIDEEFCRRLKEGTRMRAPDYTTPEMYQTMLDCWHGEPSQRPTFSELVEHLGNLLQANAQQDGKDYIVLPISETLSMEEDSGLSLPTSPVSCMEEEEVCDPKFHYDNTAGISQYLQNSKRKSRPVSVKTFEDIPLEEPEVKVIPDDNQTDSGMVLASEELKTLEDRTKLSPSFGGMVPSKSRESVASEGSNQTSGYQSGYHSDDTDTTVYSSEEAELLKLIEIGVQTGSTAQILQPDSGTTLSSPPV

Structure (SMILES) | IC50 [1] | IC50 [2] | IC50 [3] | IC50 [4] | PDGF receptor kinase activity [5] | growth of glioblastoma tumours [6] | in vivo growth of dermatofibrosarcoma protruberans cell cultures [7]
COc1cc2ncnc(Oc3ccc(CC(=O)Nc4cccc(N(C)C)n4)cc3)c2cc1OC [Compound 4 within Example 10, N-(6-dimethylaminopyridin-2-yl)-2-[4-(6,7-dimethoxyquinazolin-4-yloxy)phenyl]acetamide] | ~0.01 µM | ~0.001 µM | – | – | – | – | –
Cc1ccc(NC(=O)c2ccc(CN3CCN(C)CC3)cc2)cc1Nc1nccc(-c2cccnc2)n1 [imatinib] | – | – | – | – | inhibit PDGF receptor kinase activity | inhibits the growth | inhibits the in vivo growth

The next lines start with results.

IC50 [1] | IC50 [2] | IC50 [3] | IC50 [4] | Structure (SMILES) | PDGF receptor kinase activity [5] | growth of glioblastoma tumours [6] | in vivo growth of dermatofibrosarcoma protruberans cell cultures [7]
– | ~0.002 µM | ~0.3 µM | ~0.1 µM | COc1cc2ncnc(Oc3ccc(CC(=O)Nc4nc(C)cs4)cc3)c2cc1OC [Compound 17 within Example 9, N-(4-methylthiazol-2-yl)-2-[4-(6,7-dimethoxyquinazolin-4-yloxy)phenyl]acetamide] | – | – | –
~0.001 µM | ~0.001 µM | ~0.25 µM | ~0.06 µM | COc1cccc(NC(=O)Cc2ccc(Oc3ncnc4cc(OC)c(OC)cc34)cc2)c1 [Example 1, N-(3-methoxyphenyl)-2-[4-(6,7-dimethoxyquinazolin-4-yloxy)phenyl]acetamide] | – | – | –
~0.01 µM | ~0.0005 µM | ~0.4 µM | ~0.3 µM | COc1cc2ncnc(Oc3ccc(CC(=O)Nc4ccc(N(C)C)cn4)cc3)c2cc1OC [Example 6, N-(5-dimethylaminopyridin-2-yl)-2-[4-(6,7-dimethoxyquinazolin-4-yloxy)phenyl]acetamide] | – | – | –

— patent US8153643B2, “Quinazoline derivatives” (AstraZeneca AB, priority 2004, dated 2012)
